Source: patent US11084822B2, “Salts and processes of preparing a PI3K inhibitor” (Incyte Corporation, priority 2015, dated 2021)

Molecular target: JAK2 (Homo sapiens (Human), UniProt O60674)
Assay: JAK2 versus JAK1 (Assay A at 1 mM ATP)
Format: biochemical
Conditions: ratio JAK2/JAK1, Assay A at 1 mM ATP

JAK2, sequence (O60674 whole entry, species assumed): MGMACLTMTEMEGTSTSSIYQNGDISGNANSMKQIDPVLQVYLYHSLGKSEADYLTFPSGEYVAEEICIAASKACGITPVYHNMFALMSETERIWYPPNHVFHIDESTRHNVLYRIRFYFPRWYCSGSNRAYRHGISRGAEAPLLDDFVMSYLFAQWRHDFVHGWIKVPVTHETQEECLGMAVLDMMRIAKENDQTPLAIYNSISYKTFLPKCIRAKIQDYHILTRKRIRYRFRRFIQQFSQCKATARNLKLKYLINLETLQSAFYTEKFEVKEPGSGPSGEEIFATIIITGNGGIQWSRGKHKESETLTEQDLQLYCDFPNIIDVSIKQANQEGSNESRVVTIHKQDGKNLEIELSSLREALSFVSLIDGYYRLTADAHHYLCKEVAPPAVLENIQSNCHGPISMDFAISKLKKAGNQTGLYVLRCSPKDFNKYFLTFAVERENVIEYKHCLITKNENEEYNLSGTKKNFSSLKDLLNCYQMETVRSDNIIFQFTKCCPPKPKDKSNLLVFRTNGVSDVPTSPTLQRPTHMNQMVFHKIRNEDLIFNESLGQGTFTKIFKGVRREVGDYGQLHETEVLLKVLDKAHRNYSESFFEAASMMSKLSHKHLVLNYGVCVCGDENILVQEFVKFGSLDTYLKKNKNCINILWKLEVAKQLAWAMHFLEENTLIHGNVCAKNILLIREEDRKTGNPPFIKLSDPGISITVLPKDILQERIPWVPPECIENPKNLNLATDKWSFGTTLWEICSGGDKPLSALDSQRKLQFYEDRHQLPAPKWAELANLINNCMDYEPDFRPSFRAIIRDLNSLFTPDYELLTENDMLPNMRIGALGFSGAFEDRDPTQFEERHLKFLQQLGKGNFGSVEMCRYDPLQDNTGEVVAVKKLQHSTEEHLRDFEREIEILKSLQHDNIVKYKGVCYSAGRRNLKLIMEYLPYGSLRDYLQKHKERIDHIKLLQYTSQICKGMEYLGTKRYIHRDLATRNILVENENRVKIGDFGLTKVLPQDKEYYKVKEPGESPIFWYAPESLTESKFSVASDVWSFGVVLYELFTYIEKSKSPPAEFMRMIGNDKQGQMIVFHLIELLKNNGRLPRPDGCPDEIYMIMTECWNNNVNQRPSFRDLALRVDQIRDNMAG

JAK2/JAK1	Structure (SMILES)
>10	N#CC[C@]1(n2cc(-c3ncnc4[nH]ccc34)cn2)C[C@H](N2CCC(Oc3cc(CN4CC(O)C4)cc(C(F)(F)F)n3)CC2)C1 [Compound 11, {trans-3-(4-{[4-[(3-hydroxyazetidin-1-yl)methyl]-6-(trifluoromethyl)pyridin-2-yl]oxy}piperidin-1-yl)-1-[4-(7H-pyrrolo[2,3-d]pyrimidin-4-yl)-1H-pyrazol-1-yl]cyclobutyl}acetonitrile]
>10	C[C@H](O)CNCc1cc(OC2CCN([C@H]3C[C@](CC#N)(n4cc(-c5ncnc6[nH]ccc56)cn4)C3)CC2)nc(C(F)(F)F)c1 [Compound 25, {trans-3-(4-{[4-({[(2S)-2-hydroxypropyl]amino}methyl)-6-(trifluoromethyl)pyridin-2-yl]oxy}piperidin-1-yl)-1-[4-(7H-pyrrolo[2,3-d]pyrimidin-4-yl)-1H-pyrazol-1-yl]cyclobutyl}acetonitrile]
>10	N#CCC(C1CCN(c2nc3cccnc3o2)C1)n1cc(-c2ncnc3[nH]ccc23)cn1 (stereo not drawn) [Compound 4, 3-(1-[1,3]oxazolo[5,4-b]pyridin-2-ylpyrrolidin-3-yl)-3-[4-(7H-pyrrolo[2,3-d]pyrimidin-4-yl)-1H-pyrazol-1-yl]propanenitrile]
>10	N#CC[C@]1(n2cc(-c3ncnc4[nH]ccc34)cn2)C[C@H](N2CCN(C(=O)c3ccnc(C(F)(F)F)n3)CC2)C1 [Compound 10, [trans-1-[4-(7H-pyrrolo[2,3-d]pyrimidin-4-yl)-1H-pyrazol-1-yl]-3-(4-{[2-(trifluoromethyl)pyrimidin-4-yl]carbonyl}piperazin-1-yl)cyclobutyl]acetonitrile]
>10	C[C@@H](O)CNCc1cc(OC2CCN([C@H]3C[C@](CC#N)(n4cc(-c5ncnc6[nH]ccc56)cn4)C3)CC2)nc(C(F)(F)F)c1 [Compound 24, {trans-3-(4-{[4-({[(2R)-2-hydroxypropyl]amino}methyl)-6-(trifluoromethyl)pyridin-2-yl]oxy}piperidin-1-yl)-1-[4-(7H-pyrrolo[2,3-d]pyrimidin-4-yl)-1H-pyrazol-1-yl]cyclobutyl}acetonitrile]
>10	N#CC[C@]1(n2cc(-c3ncnc4[nH]ccc34)cn2)C[C@H](N2CCC(Oc3cc(CN4CCC[C@H]4CO)cc(C(F)(F)F)n3)CC2)C1 [Compound 12, {trans-3-(4-{[4-{[(2S)-2-(hydroxymethyl)pyrrolidin-1-yl]methyl}-6-(trifluoromethyl)pyridin-2-yl]oxy}piperidin-1-yl)-1-[4-(7H-pyrrolo[2,3-d]pyrimidin-4-yl)-1H-pyrazol-1-yl]cyclobutyl}acetonitrile]
>10	N#CC[C@]1(n2cc(-c3ncnc4[nH]ccc34)cn2)C[C@H](N2CCC(Oc3cc(CN4CCC[C@@H]4CO)cc(C(F)(F)F)n3)CC2)C1 [Compound 13, {trans-3-(4-{[4-{[(2R)-2-(hydroxymethyl)pyrrolidin-1-yl]methyl}-6-(trifluoromethyl)pyridin-2-yl]oxy}piperidin-1-yl)-1-[4-(7H-pyrrolo[2,3-d]pyrimidin-4-yl)-1H-pyrazol-1-yl]cyclobutyl}acetonitrile]
>10	N#CCC(C1CCN(c2cccc(Cl)n2)C1)n1cc(-c2ncnc3[nH]ccc23)cn1 (single isomer, unassigned) [Compound 3, 3-[1-(6-chloropyridin-2-yl)pyrrolidin-3-yl]-3-[4-(7H-pyrrolo[2,3-d]pyrimidin-4-yl)-1H-pyrazol-1-yl]propanenitrile]
>10	CC(C)(O)c1cc(O[C@H]2CC[C@@H](N3CC(CC#N)(n4cc(-c5ncnc6[nH]ccc56)cn4)C3)CC2)nc(C(F)(F)F)c1 [Compound 20, {1-(cis-4-{[4-(1-hydroxy-1-methylethyl)-6-(trifluoromethyl)pyridin-2-yl]oxy}cyclohexyl)-3-[4-(7H-pyrrolo[2,3-d]pyrimidin-4-yl)-1H-pyrazol-1-yl]azetidin-3-yl}acetonitrile]
>10	N#CC[C@]1(n2cc(-c3ncnc4[nH]ccc34)cn2)C[C@H](N2CCC(Oc3cc(CCO)cc(C(F)(F)F)n3)CC2)C1 [Compound 26, {trans-3-(4-{[4-(2-hydroxyethyl)-6-(trifluoromethyl)pyridin-2-yl]oxy}piperidin-1-yl)-1-[4-(7H-pyrrolo[2,3-d]pyrimidin-4-yl)-1H-pyrazol-1-yl]cyclobutyl}acetonitrile]
>10	N#CCC(CN1CCN(C(=O)c2ccc(C#N)cc2F)CC1)n1cc(-c2ncnc3[nH]ccc23)cn1 (stereo not drawn) [Compound 5, 4-[(4-{3-cyano-2-[4-(7H-pyrrolo[2,3-d]pyrimidin-4-yl)-1H-pyrazol-1-yl]propyl}piperazin-1-yl)carbonyl]-3-fluorobenzonitrile]
>10	N#CCC1(n2cc(-c3ncnc4[nH]ccc34)cn2)CN(C2CCN(C(=O)c3ccnc(C(F)(F)F)n3)CC2)C1 [Compound 9, [3-[4-(7H-pyrrolo[2,3-d]pyrimidin-4-yl)-1H-pyrazol-1-yl]-1-(1-{[2-(trifluoromethyl)pyrimidin-4-yl]carbonyl}piperidin-4-yl)azetidin-3-yl]acetonitrile]
>10	CCNCc1cc(O[C@H]2CC[C@@H](N3CC(CC#N)(n4cc(-c5ncnc6[nH]ccc56)cn4)C3)CC2)nc(C(F)(F)F)c1 [Compound 19, {1-(cis-4-{[4-[(ethylamino)methyl]-6-(trifluoromethyl)pyridin-2-yl]oxy}cyclohexyl)-3-[4-(7H-pyrrolo[2,3-d]pyrimidin-4-yl)-1H-pyrazol-1-yl]azetidin-3-yl}acetonitrile]
>10	N#CCC1(n2cc(-c3ncnc4[nH]ccc34)cn2)CN(C2CCN(C(=O)c3ccnc(C(F)(F)F)c3F)CC2)C1 [Compound 7, {1-{1-[3-Fluoro-2-(trifluoromethyl)isonicotinoyl]piperidin-4-yl}-3-[4-(7H-pyrrolo[2,3-d]pyrimidin-4-yl)-1H-pyrazol-1-yl]azetidin-3-yl}acetonitrile]
>10	N#CCC1(n2cc(-c3ncnc4[nH]ccc34)cn2)CN(C2CCN(C(=O)Nc3ccc(F)cc3C(F)(F)F)CC2)C1 [Compound 8]
>10	N#CCC1(n2cc(-c3ncnc4[nH]ccc34)cn2)CN([C@H]2CC[C@@H](Oc3cc(CN4CC[C@@H](O)C4)cc(C(F)(F)F)n3)CC2)C1 [Compound 21, {1-(cis-4-{[4-{[(3R)-3-hydroxypyrrolidin-1-yl]methyl}-6-(trifluoromethyl)pyridin-2-yl]oxy}cyclohexyl)-3-[4-(7H-pyrrolo[2,3-d]pyrimidin-4-yl)-1H-pyrazol-1-yl]azetidin-3-yl}acetonitrile]
>10	N#CCC1(n2cc(-c3ncnc4[nH]ccc34)cn2)CN([C@H]2CC[C@@H](Oc3cc(CN4CC[C@H](O)C4)cc(C(F)(F)F)n3)CC2)C1 [Compound 22, {1-(cis-4-{[4-{[(3S)-3-hydroxypyrrolidin-1-yl]methyl}-6-(trifluoromethyl)pyridin-2-yl]oxy}cyclohexyl)-3-[4-(7H-pyrrolo[2,3-d]pyrimidin-4-yl)-1H-pyrazol-1-yl]azetidin-3-yl}acetonitrile]
>10	N#CCC(CN1CCN(C(=O)c2ccc(C#N)cc2F)CC1)n1ccc(-c2ncnc3[nH]ccc23)c1 (stereo not drawn) [Compound 6, 4-[(4-{3-cyano-2-[3-(7H-pyrrolo[2,3-d]pyrimidin-4-yl)-1H-pyrrol-1-yl]propyl}piperazin-1-yl)carbonyl]-3-fluorobenzonitrile]
